According to patent publication US20250194600A1, “MESOIONIC ARYLPYRIDAZINIUM DERIVATIVE OR SALT THEREOF AND INSECTICIDAL AGENT CONTAINING THE COMPOUND AND METHOD FOR USING SAME” (NIHON NOHYAKU CO., LTD., priority 2022, published 2025):

How the values were obtained:
[1] = test system: Small Brown Planthopper (Laodelphax striatellus); test: Insecticidal test on small brown planthopper, dip treatment of rice plant seedlings; assay type: in vivo; details: 192 h, rice seedlings dipped 30 seconds, 3rd-instar larvae, counted 8 days after inoculation, read-out: insecticidal efficacy (corrected mortality rate) against small brown planthopper
Excerpt: (§1) • A: the mortality rate is 100%. • B: the mortality rate is 90 to 99%. • C: the mortality rate is 80 to 89%. • D: the mortality rate is 50 to 79%. • E: the mortality rate is 0 to 49.
Insecticidal Test on Small Brown Planthopper (Laodelphax striatellus)
The compounds represented by the general formula (1) of the present invention or salts thereof were separately dispersed in water and diluted to 50 ppm or 500 ppm. Rice plant seedlings (variety: Nihonbare) were dipped in the agrochemical dispersions for 30 seconds. After air-dried, each seedling was put into a separate glass test tube and inoculated with ten 3rd-instar larvae of small brown planthopper, and then the glass test tubes were capped with cotton plugs. At 8 days after the inoculation, the numbers of surviving larvae and dead larvae were counted, the corrected mortality rate was calculated according to the formula shown below, and the insecticidal efficacy was evaluated according to the criteria of Test Example 1.

[2] = test system: Western flower thrips (Frankliniella occidentalis); test: Insecticidal test on western flower thrips, larvae on kidney bean leaf pieces; assay type: in vivo; details: 96 h, hatched larvae on kidney bean leaf pieces, counted 4 days after treatment, read-out: insecticidal efficacy (corrected mortality rate) against western flower thrips
Excerpt: as §1
Insecticidal Test on Western flower thrips (Frankliniella occidentalis)
Female adults of western flower thrips were inoculated onto kidney bean leaf pieces, and allowed to lay eggs thereon for one day, then the female adults were removed. After 3 days, the hatched larvae on the leaf pieces were counted, and then the agrochemical dispersions diluted to 50 ppm or 500 ppm, each of which contained the compound described in Tables 1 to 5 as an active ingredient were applied. The number of larvae of the species surviving at 4 days after the treatment was counted, and the corrected mortality rate was calculated according to the formula shown below, and the insecticidal efficacy was evaluated according to the criteria of Test Example 1. This test was conducted in duplicate.

O=C(Nc1ccc(F)cc1)c1c([S-])c[n+](-c2ccc(C(F)(F)F)nc2)nc1O [2-1, 4-((4-fluorophenyl)carbamoyl)-3-hydroxy-1-(6-(trifluoromethyl)pyridin-3-yl)pyridazin-1-ium-5-thiolate]
100%: mortality at 500 ppm [1] | mortality at 50 ppm ([2]; 50 ppm) | mortality at 500 ppm ([2]; 500 ppm)
